Results on five molecules are retold here after patent EP4603105A1, “PHARMACEUTICAL COMPOSITION CONTAINING CYCLIC COMPOUND HAVING SELECTIVE KRAS INHIBITORY EFFECT AGAINST HRAS AND NRAS” (CHUGAI SEIYAKU KABUSHIKI KAISHA, priority 2022, dated 2024).

The target in experiment [1] is GDP-bound KRAS wild-type protein (Homo sapiens, UniProt P01116). Kind of experiment: Binding to KRAS by surface plasmon resonance (SPR), dissociation constant KD. The method, boiled down:
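GDP-loaded biotinylated Avi-tag RAS proteins (E. coli-expressed) captured on a Biotin CAPture chip at ~100–300 RU; single-cycle kinetics at 30°C, 100 µL/min, 75 s injections of rising compound concentrations. HBS pH 7.4 running buffer with 1 mM DTT, 10 mM MgCl2, 10 µM GDP, 4% DMSO. KD from 1:1 binding fit.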
(Surface plasmon resonance follows binding to a sensor surface in real time, without labels.)

The subject of experiment [2] is human lung cancer strain NCI-H441. In kind it is cell-based. The method, boiled down: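 Signal came from […] measured per well once the reagent was added. Beforehand, cells were cultured at 37°C and 5% carbon dioxide on a compound series serially diluted in dimethyl sulfoxide.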
In a further experiment the target is HRAS wild-type protein (Homo sapiens, UniProt P01112). Kind of experiment: Binding to HRAS by surface plasmon resonance (SPR), KD and KD ratio to KRAS. The following applies: ratio of KD for HRAS wild-type protein to KD for KRAS. The method, boiled down: (§1)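 Measured at 30°C: SPR with GDP-loaded, E. coli-expressed biotin-Avi RAS captured (~100–300 RU), ascending 75 s compound injections, HBS pH 7.4 with GDP, MgCl2, 4% DMSO. KD from 1:1 fit.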

Experiment [3] addresses GDP-bound NRAS wild-type protein (Homo sapiens, UniProt P01111). The experiment in a line: Binding to NRAS by surface plasmon resonance (SPR), KD and KD ratio to KRAS. The following applies: ratio of KD for GDP-bound NRAS wild-type protein to KD for KRAS. Summed up: as §1

The structures appear in SMILES notation. Where a SMILES comes first, the peptide text is derived from it. Bridges are numbered along the chain shown (N, C = ends). [ ]: non-standard residue; d: D form. The star is where a group is joined. hPhe(3-Cl-4-CF3) = N[C@@H](CCc1ccc(C(F)(F)F)c(Cl)c1)C(=O)O; NPrPhe(4-CF3) = CCCN[C@@H](Cc1ccc(C(F)(F)F)cc1)C(=O)O; NMeGly(cPent) = CN[C@H](C(=O)O)C1CCCC1; Pro(4,4-F2) = O=C(O)[C@@H]1CC(F)(F)CN1; NMeL = CN[C@@H](CC(C)C)C(=O)O; Morpholide = C1CN(*)CCO1; Aze = O=C(O)[C@@H]1CCN1; Ac4c = NC1(C(=O)O)CCC1; Sar = CNCC(=O)O

Sequence of GDP-bound KRAS wild-type protein (P01116 1-188 isoform P01116-2): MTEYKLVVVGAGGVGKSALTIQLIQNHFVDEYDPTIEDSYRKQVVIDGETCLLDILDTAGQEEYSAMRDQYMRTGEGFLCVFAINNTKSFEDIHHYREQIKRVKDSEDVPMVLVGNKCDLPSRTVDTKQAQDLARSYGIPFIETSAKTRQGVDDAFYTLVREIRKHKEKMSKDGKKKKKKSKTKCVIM
Sequence of HRAS wild-type protein (P01112 whole entry): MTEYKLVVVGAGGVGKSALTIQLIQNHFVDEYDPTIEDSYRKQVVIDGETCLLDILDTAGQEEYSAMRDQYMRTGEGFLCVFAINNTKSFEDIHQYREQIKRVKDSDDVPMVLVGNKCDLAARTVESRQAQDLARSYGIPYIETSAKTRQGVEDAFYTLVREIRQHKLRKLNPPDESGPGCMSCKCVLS
Sequence of GDP-bound NRAS wild-type protein (P01111 whole entry): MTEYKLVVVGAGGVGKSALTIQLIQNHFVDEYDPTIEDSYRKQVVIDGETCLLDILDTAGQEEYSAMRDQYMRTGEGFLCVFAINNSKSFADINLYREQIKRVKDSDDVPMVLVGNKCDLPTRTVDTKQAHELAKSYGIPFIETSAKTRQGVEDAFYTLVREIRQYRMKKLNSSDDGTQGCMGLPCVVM

For `CC[C@H](C)[C@@H]1NC(=O)[C@H](CC(C)C)N(C)C(=O)C[C@@H](C(=O)N2CCOCC2)N(C)C(=O)[C@H](C2CCCC2)N(C)C(=O)C2(CCCC2)NC(=O)[C@@H]2CCCN2C(=O)[C@H](CCc2cc(F)c(C(F)(F)F)c(F)c2)NC(=O)CN(C)C(=O)[C@H](Cc2ccc(F)cc2)N2CCCCC[C@@H](C2=O)N(C)C(=O)CN(C)C1=O` [PP0964], the Kd (in general, the concentration at which binding is half-saturated) in experiment [1] (Single Cycle Kinetics) was determined as 0.59 nM. Further, in experiment [2], the IC50 (usually the midpoint of a concentration-inhibition curve) was found to be 56.6 nM. On HRAS wild-type protein, the “HRAS /KRAS” value is “B (a compound having 3 or more and less than 10 is denoted as B)”. In addition, the “NRAS /KRAS” value in experiment [3] was “B (a compound having 3 or more and less than 10 is denoted as B)”.
Molecule `CCCN1C(=O)CN(C)C(=O)[C@@H]2CCN2C(=O)[C@H]([C@@H](C)CC)NC(=O)[C@H](CC(C)C)N(C)C(=O)C[C@@H](C(=O)N2CCOCC2)NC(=O)[C@H](C2CCCC2)N(C)C(=O)C2(CCC2)NC(=O)[C@@H]2CC(F)(F)CN2C(=O)[C@H](CCc2ccc(C(F)(F)F)c(Cl)c2)NC(=O)CN(C)C(=O)[C@@H]1Cc1ccc(C(F)(F)F)cc1` [PP0340] ([NMeL]I[Aze][Sar][NPrPhe(4-CF3)][Sar][hPhe(3-Cl-4-CF3)][Pro(4,4-F2)][Ac4c][NMeGly(cPent)]D-Morpholide; lactam N-11) yielded a dissociation constant (Kd) in experiment [1] (1:1 binding model) of 3.7 nM. The molecule also yielded a 50% inhibitory concentration (IC50) in experiment [2] of 177 nM. Besides, the “HRAS /KRAS” value on HRAS wild-type protein is “B (a compound having 3 or more and less than 10 is denoted as B)”. For the same molecule, in experiment [3], the “NRAS /KRAS” value was “B (a compound having 3 or more and less than 10 is denoted as B)”.
Turning to `CCC[C@H]1C(=O)N[C@@H]([C@@H](C)CC)C(=O)N(C)CC(=O)N(C)[C@H]2C/C=C\CCN(C2=O)[C@@H](Cc2ccc(C)cc2)C(=O)N(C)CC(=O)N[C@@H](CCc2ccc3sc(C)c(C)c3c2)C(=O)N2C[C@H](OCC)C[C@H]2C(=O)NC2(CC(C)(C)C2)C(=O)N(C)[C@@H](C2CCCC2)C(=O)N(C)[C@H](C(=O)N(C)C)CC(=O)N1C` [PP2891], binding in experiment [1] (1:1 binding model) was characterised by a dissociation constant (Kd) of 0.33 nM. In addition, the IC50 in experiment [2] amounted to 17.2 nM. Besides, the “HRAS /KRAS” value on HRAS wild-type protein was “B (a compound having 3 or more and less than 10 is denoted as B)”. Also, in experiment [3], the “NRAS /KRAS” value was “A (a compound having 10 or more and less than 20 is denoted as A)”.
`CCO[C@@H]1C[C@H]2C(=O)NC3(CCC3)C(=O)N(C)[C@@H](C3CCCC3)C(=O)N(C)[C@H](C(=O)N(C)C)CC(=O)N(C)[C@@H](CC)C(=O)N[C@@H]([C@@H](C)CC)C(=O)N(C)CC(=O)N(C)[C@H]3CCCCCN(C3=O)[C@@H](Cc3ccc(F)cc3Cl)C(=O)N(C)CC(=O)N[C@@H](CCc3cc(F)c(C(F)(F)F)c(F)c3)C(=O)N2C1` [PP0908] returned a dissociation constant Kd in experiment [1] (Single Cycle Kinetics) of 0.19 nM. Further, the concentration for half-maximal inhibition (IC50) in experiment [2] came out at 38.5 nM. In addition, at HRAS wild-type protein, the “HRAS /KRAS” value was “B (a compound having 3 or more and less than 10 is denoted as B)”. Moreover, the “NRAS /KRAS” value in experiment [3] was “B (a compound having 3 or more and less than 10 is denoted as B)”.
In experiment [1] (1:1 binding model), `CCO[C@@H]1C[C@H]2C(=O)NC3(CC(C)(C)C3)C(=O)N(C)[C@@H](C3CCCC3)C(=O)N(C)[C@H](C(=O)N(C)C)CC(=O)N(C)[C@@H]([C@@H](C)OC)C(=O)N[C@@H]([C@@H](C)CC)C(=O)N3CCC[C@H]3C(=O)N(C)[C@H]3C/C=C\CCN(C3=O)[C@@H](Cc3ccc(C(F)(F)F)cc3)C(=O)N(C)CC(=O)N[C@@H](CCc3cc(F)c(C(F)(F)F)c(F)c3)C(=O)N2C1` [PP3205] came in with an equilibrium dissociation constant (Kd) of 0.39 nM. In experiment [2], this molecule registered a half-maximal inhibitory concentration (IC50) of 18.4 nM. Besides, at HRAS wild-type protein, the “HRAS /KRAS” value is “A (a compound having 10 or more and less than 20 is denoted as A)”. Moreover, the “NRAS /KRAS” value in experiment [3] is “A (a compound having 10 or more and less than 20 is denoted as A)”.
